# Like-named read-outs stand apart in the source and are kept apart here. Marks after values point to notes of the source that are not given here.
# Key:
# K562 = test: DNA fragmentation by flow cytometry; format: cell-based, human; details: FIGS. 4 and 5
# Description: It has been shown that sodium butyrate can induce apoptosis in human tumors or tumor cell lines (L. A. Noorduyn et al., Histopathology 21:59, 1992).
# OvCar (ovarian cancer) = test: Survival fraction after 72 hours exposure (MTT assay); format: cell-based, human
# Experimental: (§1) Growth inhibition was measured by the MTT assay. Survival fraction is calculated from at least 3 experiments, and differences in survival fraction are statistically significant P<0.05, using the Paired Two-Sample For Means T-Test. […] PC-3=prostate cancer; A549=non-small cell cancer; OvCar=ovarian cancer; CaCo=colon cancer; MCF-7=breast cancer; and SW900=non-small cell lung cancer.
# PC-3 (prostate cancer) = test: as above; format: cell-based, human
# Experimental: as §1
# [1] = tested on: A549 (non-small cell cancer); test: as above; format: cell-based, human
# Experimental: (§2) Growth inhibition was measured by the MTT assay. […] PC-3=prostate cancer; A549=non-small cell cancer; OvCar=ovarian cancer; CaCo=colon cancer; MCF-7=breast cancer; and SW900=non-small cell lung cancer.
# breast and colon lines = test: Enhancement of cytotoxicity of other chemotherapeutic agents by arginine butyrate; details: evaluated with arginine butyrate
# Description: Other chemotherapeutic agents with non-overlapping mechanisms of antiproliferative activity such as 5-fluorouracil, taxol and interferon alpha have been evaluated with arginine butyrate.
# [2] = tested on: Fibroblasts (mouse BALB/c-3T3); test: MIC on cell proliferation, 7 days in culture; format: cell-based
# Experimental: (§3) The ability of arginine butyrate to induce differentiation has been evaluated and is measured by inhibition of growth, in some of the neoplastic cell types previously reported to be sensitive to (sodium) butyric acid, and found arginine butyrate to be as potent as butyric acid. We have also extended that work to additional cell types and found Arginine Butyrate to induce differentiation in these new cell types. Table 1 lists the cell types tested and the minimum inhibitory concentration (MIC) of sodium butyrate (NaB) and arginine butyrate (ArgB) on these cell lines. The MIC is the lowest dose that prevents all growth over the 7 days that the cells are maintained in culture, that is the minimum dose that prevents an increase in cell number. […] The […] of ArgB and NaB were equivalent on all cell lines tested.
# [3] = tested on: Fibroblasts (normal human); test: MIC on cell proliferation, 7 days in culture; format: cell-based; details: lowest dose that prevents all growth over 7 days
# Experimental: as §3
# Choriocarcinoma (JAR) = test: MIC on cell proliferation, 7 days in culture; format: cell-based, human
# Experimental: as §3
# [4] = tested on: Colonic Adenocarcinoma (HT29); test: MIC on cell proliferation, 7 days in culture; format: cell-based, human
# Experimental: as §3
# Erythroleukemia (K562) = test: MIC on cell proliferation, 7 days in culture; format: cell-based, human
# Experimental: as §3
# Gastric Carcinoma (AGS) = test: MIC on cell proliferation, 7 days in culture; format: cell-based, human
# Experimental: as §3
# Myeloid Leukemia (HL60) = test: MIC on cell proliferation, 7 days in culture; format: cell-based, human
# Experimental: as §3
# Osteosarcoma (HOS) = test: MIC on cell proliferation, 7 days in culture; format: cell-based, human
# Experimental: as §3
# Rhabdomyosarcoma = test: MIC on cell proliferation, 7 days in culture; format: cell-based, human
# Experimental: as §3
# [5] = Clinical toxicity in patients; format: in vivo, human; details: adults; IV infusion of similar doses
# Experimental: Clinical experience with butyrates have been performed in children with acute myelogenous leukemia in Israel, and in children with neuroblastoma (K. Prasad, Life Sci. 27:1351-58, 1980). […] Eleven pediatric patients and twelve adults with β-hemoglobinopathies were treated with IV arginine butyrate at a starting dose of 500 mg/kg/day for 2-7 weeks. If no side effects were noted, the rate was increased by 250 mg/kg/day to a final rate of 1500 mg/kg/day in 4 patients, and 2000 mg/kg/day in 2 patients. […] This rise in BUN returned to normal within 12 hours of discontinuation of drug, and is thought to be secondary to effect of arginine upon ureagenesis. […] Peak serum levels of butyrate ranged between 0.04-0.05 mM, and butyrate was not detectable 15 minutes after infusion was discontinued. Plasma arginine levels were also rapidly cleared, with a T1/2 of 15 minutes, and baseline arginine levels were reached within 12 hours after discontinuation of infusion.
# Three patients with refractory neoplasms (breast, melanoma, adenocarcinoma, of unknown primary) have been enrolled and completed 1-2 cycles of arginine butyrate as a dose of 500 mg/kg/day over 6-8 hours for 10 days.
# Three patients (with breast cancer, bowel cancer or Hodgkins disease) have completed two cycles of arginine butyrate at a dose of 750 mg/kg/day for 10 days. […] Otherwise, there was no other objective measures of organ progressed after treatment was topped. […] There was a further resolution of the disease during the second cycle. Disease progression was noted one month after second cycle was completed. At 1000 mg/kg/day, 3 patients have been enrolled on study.
# An inter-group dose-escalation study is being conducted in patients with refractory malignancies. There are 3 patients per group with the dose levels starting at 500 mg/kg/day, and increasing by 250 mg/kg/day per group, if toxicity permits. Doses are given by 8 hour IV infusion, daily, for 5 days times 2 weeks, with weekends off, for a total of 10 days of treatment per cycle.
# [6] = children with acute myelogenous leukemia or neuroblastoma; 0.5-1.5 g/kg/day for 14 days and 10 g/kg/day IV; cited from earlier work
# MCF-7 (breast cancer) = test: Survival fraction after 72 hours exposure (MTT assay); format: cell-based, human
# Experimental: as §1
# [7] = tested on: SW900 (non-small cell lung cancer); test: as above; format: cell-based, human
# Experimental: as §1
# CaCo (colon cancer) = test: as above; format: cell-based, human; details: 72 hour
# Experimental: as §2
# [8] = tested on: post-transplant EBV-induced lymphomas; test: Compassionate treatment of post-transplant EBV-induced lymphomas; format: in vivo, human; details: patient one; GCV for 2 weeks before arginine butyrate
# Description: Finally, two patients with post-transplant EBV-induced lymphomas have been treated on a compassionate basis with IRB approval. Each patient is summarized below.
# Patient one was a person, 2 months post lung transplant. They were receiving cyclosporin to prevent impending rejection. They developed massive lymphadenopathy in mediastinum and hilum, with progressive respiratory failure. They were biopsy positive for EBV, and the tumor cells were monoclonal and of donor origin.
# They had been off all therapy, except ganciclovir, for 3 weeks when they started arginine butyrate at 1,000 mg/kg/day. […] They eventually died from Aspergillus infection.
# The second patient was a person, 4 months post-allogeneic bone marrow transplant for leukemia. They were receiving cyclosporin to prevent rejection. They developed cervical, mediastinal and abdominal lymphadenopathy, with brain metastases. A biopsy was positive for EBV and tumor cells were monoclonal confirming the diagnosis of LPD.
# They had been treated with and had no response to XRT, CHOP, or α-IFN plus gamma globulin. They had been off all therapy for 2 weeks and was cachectic, too weak to ambulate, paraplegic, in constant pain and had been admitted for terminal care, when they started arginine butyrate at 1,000 mg/kg/day and ganciclovir.
# [9] = tested on: EBV+ and EBV− cell lines (X50-7, Akata, HPB-ALL, Nalm-6); test: Growth of EBV+ and EBV− cell lines; format: cell-based, human; details: both EBV+ and EBV− cell lines
# Description: In some experiments sodium was used instead of arginine to neutralize butyric acid. […] Cell lines used were X50-7, a latent EBV+ B-cell lymphoma; Akata, a producer EBV+ Burkitt's lymphoma; HPB-ALL, a T-cell line; and Nalm-6, an EBV− B-cell line. Growth curves for X50-7 cells in different concentrations of sodium butyrate are shown in FIG. 8b and the growth curves for HPB-ALL cells in different concentrations of sodium butyrate are shown in FIG. 8c.
# [10] = Table 3, 1 CP (1.0 μg/ml), 72 hours
# [11] = Table 3, 2 CP (2.0 μg/ml), 72 hours
# [12] = Table 4, 0.1 A (0.1 μg/ml), 72 hour
# [13] = Table 4, 0.5 A (0.5 μg/ml), 72 hour
smiles,measurement,setting,value
O=P1(N(CCCl)CCCl)NCCCO1 (stereo not shown) [cyclophosphamide],apoptotic activity on addition of arginine butyrate,K562,Lack of enhancement
"N.N.[Cl][Pt][Cl] [CP, cisplatin]",Survival Fraction,OvCar (ovarian cancer); [10],0.91
same,Survival Fraction,OvCar (ovarian cancer); [11],0.45*
same,Survival Fraction,PC-3 (prostate cancer); [10],0.92
same,Survival Fraction,PC-3 (prostate cancer); [11],0.49*
same,Survival Fraction,[1]; [10],0.77*
same,Survival Fraction,[1]; [11],0.54*
C[C@@H]1C[C@@H]([C@H](O)CC2CC(=O)NC(=O)C2)C(=O)[C@@H](C)C1 [cyclohexamide],apoptotic activity on addition of arginine butyrate,K562,increased their apoptotic activity
CC[C@@]1(O)C(=O)OCc2c1cc1n(c2=O)Cc2cc3ccccc3nc2-1 [camptothecin],apoptotic activity on addition of arginine butyrate,K562,increased their apoptotic activity
CC(=O)O[C@H]1C(=O)[C@@]2(C)[C@H]([C@H](OC(=O)c3ccccc3)[C@]3(O)C[C@H](OC(=O)[C@H](O)[C@@H](NC(=O)c4ccccc4)c4ccccc4)C(C)=C1C3(C)C)[C@]1(OC(C)=O)CO[C@@H]1C[C@@H]2O [taxol],concentration of agent at which enhancement of cytotoxicity was observed,breast and colon lines,exceeding 10 mM
COc1cc([C@@H]2c3cc4c(cc3[C@@H](O[C@@H]3O[C@@H]5CO[C@@H](C)O[C@H]5[C@H](O)[C@H]3O)[C@H]3COC(=O)[C@H]23)OCO4)cc(OC)c1O [etoposide],apoptotic activity on addition of arginine butyrate,K562,increased their apoptotic activity
"CCCC(=O)[O-].[Na+] [NaB, sodium butyrate, reference compound]",MIC,[2],">5,000 μM"
same,MIC,[3],">5,000 μM"
same,MIC,Choriocarcinoma (JAR),156 µM
same,MIC,[4],"2,000 μM"
same,MIC,Erythroleukemia (K562),">5,000 μM"
same,MIC,Gastric Carcinoma (AGS),"2,000 μM"
same,MIC,Myeloid Leukemia (HL60),78 µM
same,MIC,Osteosarcoma (HOS),312 µM
same,MIC,Rhabdomyosarcoma,156 µM
same,toxic side effects,[5],no toxic side effects
same,toxic side effects,[6],without toxic side effects
"COc1cccc2c1C(=O)c1c(O)c3c(c(O)c1C2=O)C[C@@](O)(C(=O)CO)C[C@@H]3O[C@H]1C[C@H](N)[C@H](O)[C@H](C)O1 [A, adriamycin]",Survival Fraction,"MCF-7 (breast cancer); Table 4, 0.1 A (0.1 μg/ml)",0.73*
same,Survival Fraction,"MCF-7 (breast cancer); Table 4, 0.5 A (0.5 μg/ml)",0.69*
same,Survival Fraction,OvCar (ovarian cancer); [12],0.83*
same,Survival Fraction,OvCar (ovarian cancer); [13],0.81*
same,Survival Fraction,PC-3 (prostate cancer); [12],0.72*
same,Survival Fraction,PC-3 (prostate cancer); [13],0.68*
same,Survival Fraction,"[7]; Table 4, 0.1 A (0.1 μg/ml)",0.82*
same,Survival Fraction,"[7]; Table 4, 0.5 A (0.5 μg/ml)",0.76*
same,Survival Fraction,[1]; [12],0.59*
same,Survival Fraction,[1]; [13],0.59*
same,Survival Fraction,"CaCo (colon cancer); Table 4, 0.1 A (0.1 μg/ml)",0.68*
same,Survival Fraction,"CaCo (colon cancer); Table 4, 0.5 A (0.5 μg/ml)",0.62*
same,apoptotic activity on addition of arginine butyrate,K562,increased their apoptotic activity
"Nc1nc(O)c2ncn(COC(CO)CO)c2n1 [GCV, ganciclovir, reference compound]",tumor response,[8],showed no response
same,levels generally cytocidal,[9],above 30 μM
